Results taken from US5914324A, “6-Hydroxy and 6-oxo-androstane derivatives active on the cardiovascular system and pharmaceutical compositions containing same” (Sigma-Tau Industrie Farmaceutiche Riunite S.p.A., priority 1996, dated 1999).
Structures can show the parent of a compound that is named as a salt.

What was measured:
[1] = tested on: guinea pig left atrium; test: inotropic activity in vitro, electrically paced guinea pig left atrium; details: Cavia porcellus
[2] = acute toxicity mouse oral; details: in vivo
Description: Finally the compounds of the invention have a low toxicity when compared with standard cardiotonic steroids.

[3] = biological target: T1, Na+,K+-ATPase (Canis lupus familiaris, UniProt P50997); test: displacement of the specific 3H-ouabain binding from the Na+,K+-ATPase receptor; details: displacement of specific 3H-ouabain binding, purified enzyme
T1 construct: Na^+,K^+ -ATPase receptor purified according to Jorghensen; from tissue
Description: (§1) To test the affinity for the receptor site of the Na^+,K^+ -ATPase and the inhibitory activity on the enzyme, the following tests were used: a) displacement of the specific 3H-ouabain binding from the Na^+,K^+ -ATPase receptor purified according to Jorghensen (Jorghensen P., BBA.

[4] = biological target: T1, Na+,K+-ATPase; test: inhibition of the activity of the purified Na+,K+-ATPase (hydrolysis of 32P-ATP); assay type: biochemical; details: purified enzyme
Description: as §1

Compound | EC50 [1] [nM] | LD50 [2] [mg/kg] | EC50 [3] [nM] | IC50 [4] [nM]
C[C@H]1O[C@@H](O[C@H]2[C@@H](O)C[C@H](O[C@H]3[C@@H](O)C[C@H](O[C@H]4CC[C@@]5(C)[C@H](CC[C@@H]6[C@@H]5C[C@@H](O)[C@]5(C)[C@@H](C7=CC(=O)OC7)CC[C@]65O)C4)O[C@@H]3C)O[C@@H]2C)C[C@H](O)[C@@H]1O [Digoxin, reference compound] | 500 | 18 | – | –
CN(C)CCO/N=C\[C@H]1CC[C@@]2(C)[C@H](C1)[C@@H](O)C[C@@H]1[C@@H]2CC[C@]2(C)[C@@H](O)CC[C@@H]12 [I-e, (Z)-3β-(2-N,N-dimethylaminoethoxyiminomethyl)-5α-androstan-6α,17β-diol oxalate] | 5600 | > 600 | 160 | 2000
CN(C)CCO/N=C/C=C1\CC[C@@]2(C)[C@H](C1)C(=O)C[C@@H]1[C@@H]2CC[C@]2(C)C(=O)CC[C@@H]12 [I-k, (E)-3-[3-(2-N,N-dimethylaminoethoxyimino)(E)-propen-1-yl)-5α-androstan-6,17-dione oxalate] | 12600 | > 600 | 320 | 3200
C[C@]12CCC(=NOCCN)C[C@@H]1[C@@H](O)C[C@@H]1[C@@H]2CC[C@]2(C)[C@@H](O)CC[C@@H]12 [I-a, (E,Z)-3-(2-aminoethoxyimino)-5α-androstan-6α,17β-diol oxalate] | 2500 | > 600 | 100 | 1600
C[C@]12CCC(=NOCCN)C[C@@H]1C(=O)C[C@@H]1[C@@H]2CC[C@]2(C)C(=O)CC[C@@H]12 [I-h, (E,Z)-3-(2-aminoethoxyimino)-5α-androstan-6,17-dione emioxalate] | 600 | 520 | 20 | 300
CN(C)CCO/N=C1/CC[C@@]2(C)[C@H](C1)C(=O)C[C@@H]1[C@@H]2CC[C@]2(C)C(=O)CC[C@@H]12 [I-i, (Z)-3-(2-N,N-dimethylaminoethoxyimino)-5α-androstan-6,17-dione] | 7100 | > 1000 | 500 | 12000
C[C@]12CC[C@H](/C=N\OCCN)C[C@@H]1[C@@H](O)C[C@@H]1[C@@H]2CC[C@]2(C)[C@@H](O)CC[C@@H]12.O=C(O)C(=O)O [I-d, (Z)-3β-(2-aminoethoxyiminomethyl)-5α-androstan-6α,17β-diol oxalate] | 10500 | > 600 | 130 | 1600
CN(C)CCO/N=C/C=C1\CC[C@@]2(C)[C@H](C1)[C@@H](O)C[C@@H]1[C@@H]2CC[C@]2(C)[C@@H](O)CC[C@@H]12 [I-f, (E)-3-[3-(2-N,N-dimethylaminoethoxyimino)(E)-propen-1-yl)-5α-androstan-6α,17β-diol] | 800 | 560 | 100 | 1000
CN(C)CCCO[C@H]1CC[C@@]2(C)[C@H](C1)C(=O)C[C@@H]1[C@@H]2CC[C@]2(C)C(=O)CC[C@@H]12 [I-m, 3β-(3-N,N-dimethylaminopropoxy)-5α-androstan-6,17-dione] | 20000 | > 1000 | 1300 | 50000
